Columns and labels:
[1] = target: ScSFA1 (yeast GSNOR, Sensitive to Formaldehyde 1) (Saccharomyces cerevisiae, UniProt P32771, C12A); assay: residual activity after CysNO versus CysSH treatment; assay type: biochemical; conditions: covalent (S-nitrosation); 2 mM CysNO
[2] = target: AtGSNOR (Arabidopsis GSNOR) (Arabidopsis thaliana, UniProt Q96533, C271A); assay: intact protein mass spectrometry; assay type: binding; conditions: covalent (S-nitrosation)
[3] = target: AtGSNOR (Arabidopsis GSNOR) (Arabidopsis thaliana, UniProt Q96533, C370A); assay: intact protein mass spectrometry; assay type: binding; conditions: covalent (S-nitrosation)
Chain of AtGSNOR (Arabidopsis GSNOR) (Arabidopsis thaliana, UniProt Q96533, C370A) (Q96533 2-379 C370A): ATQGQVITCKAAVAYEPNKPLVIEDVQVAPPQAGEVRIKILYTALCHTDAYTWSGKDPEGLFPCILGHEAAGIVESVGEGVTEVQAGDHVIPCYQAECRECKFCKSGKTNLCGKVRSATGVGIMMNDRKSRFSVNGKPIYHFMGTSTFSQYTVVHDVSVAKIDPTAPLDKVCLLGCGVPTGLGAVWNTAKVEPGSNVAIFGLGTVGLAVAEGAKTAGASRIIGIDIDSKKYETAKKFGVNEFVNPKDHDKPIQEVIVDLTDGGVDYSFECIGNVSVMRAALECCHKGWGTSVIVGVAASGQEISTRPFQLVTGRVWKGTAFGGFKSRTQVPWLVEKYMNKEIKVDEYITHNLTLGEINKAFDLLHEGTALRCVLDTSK

[4] = target: T1, AtGSNOR (Arabidopsis GSNOR) (Arabidopsis thaliana, UniProt Q96533); assay: residual GSNO reductase activity after CysNO incubation; assay type: biochemical; conditions: covalent (S-nitrosation of Cys10, Cys271, Cys370), reversible by DTT; one hour
T1 sequence (Q96533 2-379): as the sequence (Q96533 2-379 C370A) above, with A369C counted along it

[5] = target: T1, AtGSNOR (Arabidopsis GSNOR); assay: time-dependent loss of activity on GSNO incubation; assay type: biochemical; conditions: covalent (presumed S-nitrosation); 1 mM GSNO, 20 µM protein

Chain of AtGSNOR (Arabidopsis GSNOR) (Arabidopsis thaliana, UniProt Q96533, C271A) (Q96533 2-379 C271A): as the sequence (Q96533 2-379 C370A) above, with C270A, A369C counted along it
Chain of ScSFA1 (yeast GSNOR, Sensitive to Formaldehyde 1) (P32771 whole entry C12A): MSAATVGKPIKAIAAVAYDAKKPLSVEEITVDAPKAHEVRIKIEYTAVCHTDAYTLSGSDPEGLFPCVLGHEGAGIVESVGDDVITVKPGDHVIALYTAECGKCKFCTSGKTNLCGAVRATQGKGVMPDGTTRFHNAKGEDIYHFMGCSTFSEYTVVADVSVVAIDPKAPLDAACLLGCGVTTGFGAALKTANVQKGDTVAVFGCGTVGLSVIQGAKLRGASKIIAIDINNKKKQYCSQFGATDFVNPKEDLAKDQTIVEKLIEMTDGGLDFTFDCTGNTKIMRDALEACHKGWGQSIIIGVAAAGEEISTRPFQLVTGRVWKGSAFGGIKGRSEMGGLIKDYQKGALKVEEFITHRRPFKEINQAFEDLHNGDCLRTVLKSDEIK

Row | SMILES | residual activity after CysNO versus CysSH treatment [1] | intact protein mass spectrometry (+29 Da adducts) [2] | intact protein mass spectrometry (+29 Da adducts) [3] | % decrease in activity at 125 μM [4] | time-dependent loss of activity on GSNO incubation [5]
1 | N[C@@H](CSN=O)C(=O)O [CysNO] | ScSFA1^C12A and HsGSNOR^C8A were as sensitive to nitrosation as their corresponding wild-types | only two adducts were observed for single cysteine mutants (Fig. 2F, H, J) | only two adducts were observed for single cysteine mutants (Fig. 2F, H, J) | ~ 40% | –
2 | N[C@@H](CCC(=O)N[C@@H](CSN=O)C(=O)NCC(=O)O)C(=O)O [GSNO] | – | – | – | – | Incubation with GSNO caused a time-dependent decrease in the specific activity of unmodified AtGSNOR

Reference: article PMC4974627 (Biochemistry, 2016)
